According to the supplement of paper PMC10307832:

Key:
Assay in all cases: relative viability (nuclei count vs DMSO), 5 days (fraction); higher = more cells survive
NCI-H2087 = test system: NCI-H2087
Outline: (§1)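 A single step with final 0.05% Triton X-100, 1% formaldehyde and 1 ug/ml Hoechst fixed the cells and stained nuclei 5 days after treatment. Lung cancer cell lines in 1536-well plates had been treated by pin tool the day after seeding with one drug alone or a fixed anchor-drug dose plus five library-drug doses (not always all listed) in √10 steps, and nuclei were counted on 4× images. Relative viability is the ratio of nuclei in treated wells to nuclei in vehicle wells, taken as the median of duplicate plates.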

201T = test system: 201T
Outline: as §1

BEN = test system: BEN
Outline: as §1

NCI-H522 = test system: NCI-H522
Outline: as §1

HARA = test system: HARA
Outline: as §1

NCI-H1395 = test system: NCI-H1395
Outline: as §1

NCI-H727 = test system: NCI-H727
Outline: as §1

NCI-H2126 = test system: NCI-H2126
Outline: as §1

NCI-H1993 = test system: NCI-H1993
Outline: as §1

NCI-H23 = test system: NCI-H23
Outline: as §1

NCI-H441 = test system: NCI-H441
Outline: as §1

## Cc1sc2c(c1C)C(c1ccc(Cl)cc1)=N[C@@H](CC(=O)OC(C)(C)C)c1nnc(C)n1-2 [JQ1] + COc1cccc2cc(-c3nc([C@H]4CC[C@H](C(=O)O)CC4)n4ncnc(N)c34)[nH]c12 [OSI-027] (partner 0.5 µM)
NCI-H2087; first compound 0.04 µM
  relative viability: 0.586
NCI-H2087; first compound 0.1265 µM
  relative viability: 0.643
NCI-H2087; first compound 0.4 µM
  relative viability: 0.699
NCI-H2087; first compound 1.265 µM
  relative viability: 0.302
NCI-H2087; first compound 4 µM
  relative viability: 0.301
201T; first compound 0.04 µM
  relative viability: 0.761
201T; first compound 0.1265 µM
  relative viability: 0.596
201T; first compound 0.4 µM
  relative viability: 0.688
201T; first compound 1.265 µM
  relative viability: 0.238
201T; first compound 4 µM
  relative viability: 0.201
BEN; first compound 0.04 µM
  relative viability: 0.282
BEN; first compound 0.1265 µM
  relative viability: 0.286
BEN; first compound 0.4 µM
  relative viability: 0.335
BEN; first compound 1.265 µM
  relative viability: 0.252
BEN; first compound 4 µM
  relative viability: 0.2
NCI-H522; first compound 0.04 µM
  relative viability: 0.657
NCI-H522; first compound 0.1265 µM
  relative viability: 0.556
NCI-H522; first compound 0.4 µM
  relative viability: 0.617
NCI-H522; first compound 4 µM
  relative viability: 0.468
HARA; first compound 0.04 µM
  relative viability: 0.418
HARA; first compound 0.1265 µM
  relative viability: 0.341
HARA; first compound 0.4 µM
  relative viability: 0.282
HARA; first compound 1.265 µM
  relative viability: 0.11
HARA; first compound 4 µM
  relative viability: 0.141
NCI-H1395; first compound 0.04 µM
  relative viability: 0.626
NCI-H1395; first compound 0.1265 µM
  relative viability: 0.489
NCI-H1395; first compound 0.4 µM
  relative viability: 0.605
NCI-H1395; first compound 1.265 µM
  relative viability: 0.488
NCI-H1395; first compound 4 µM
  relative viability: 0.477
NCI-H727; first compound 0.04 µM
  relative viability: 0.576
NCI-H727; first compound 0.1265 µM
  relative viability: 0.582
NCI-H727; first compound 0.4 µM
  relative viability: 0.414
NCI-H727; first compound 1.265 µM
  relative viability: 0.375
NCI-H727; first compound 4 µM
  relative viability: 0.406
NCI-H2126; first compound 0.04 µM
  relative viability: 0.712
NCI-H2126; first compound 0.1265 µM
  relative viability: 0.72
NCI-H2126; first compound 0.4 µM
  relative viability: 0.739
NCI-H2126; first compound 1.265 µM
  relative viability: 0.552
NCI-H2126; first compound 4 µM
  relative viability: 0.431
NCI-H1993; first compound 0.04 µM
  relative viability: 0.511
NCI-H1993; first compound 0.1265 µM
  relative viability: 0.608
NCI-H1993; first compound 0.4 µM
  relative viability: 0.623
NCI-H1993; first compound 1.265 µM
  relative viability: 0.537
NCI-H1993; first compound 4 µM
  relative viability: 0.538
NCI-H23; first compound 0.04 µM
  relative viability: 0.586
NCI-H23; first compound 0.1265 µM
  relative viability: 0.583
NCI-H23; first compound 0.4 µM
  relative viability: 0.394
NCI-H23; first compound 1.265 µM
  relative viability: 0.198
NCI-H23; first compound 4 µM
  relative viability: 0.204
NCI-H441; first compound 0.04 µM
  relative viability: 0.718
NCI-H441; first compound 0.1265 µM
  relative viability: 0.583
NCI-H441; first compound 0.4 µM
  relative viability: 0.705
NCI-H441; first compound 1.265 µM
  relative viability: 0.392
NCI-H441; first compound 4 µM
  relative viability: 0.334
